Legend:
[1] = system: PARP-1; test: Western blot of PARP-1 cleavage, HT-29; assay type: cell-based, human; details: HT-29, 24 h, IC50 and 1/2IC50
Experimental: (§1) Then, cells were treated with chosen compounds. After 24 h of incubation, monolayer and supernatant were harvested and washed in cold PBS. Cells were centrifuged—monolayer at 1200 rpm for 10 min, supernatant 3500 rpm for 10 min. Pellets were dissolved in RIPA Lysis and Extraction buffer (Bio-Rad) containing Phosphatase Inhibitor Cocktail 3 (Sigma Aldrich) and Protease Inhibitor Cocktail (Sigma Aldrich). Samples were incubated in ice for 30 min and mixed every 10 min. Then, samples were centrifuged at 12,000 rpm for 25 min. Protein concentration in supernatants was measured in triplicate using a Protein Assay (Bio-Rad). Proteins were separated by SDS–polyacrylamide gel electrophoresis. Separating and stacking gels were made of different ratios of water, Tris–HCl pH 6.8 and pH 8.8, 10% SDS (Sigma Aldrich), Acrylamide/bis-acrylamide (Sigma Aldrich), 10% APS (Sigma Aldrich), TEMED (Sigma Aldrich). 7.5% gels were prepared for analysis PARP-1, whereas 12% gels prepared for γ-H2AX. After separation on SDS–polyacrylamide gels, proteins were electroblotted on nitrocellulose membrane in Transfer Buffer (Glycine, Tris, Methanol). Membranes were washed in TBS/0.1% or 0.05% Tween20 solution and blocked in Tris-buffered saline with 5% of non-fated dried milk for 1 h. Membranes were then incubated overnight with primary antibodies—anti-PARP-1 (Cell Signaling Technology), anti-γ-H2A.X (Cell Signaling Technology), anti-β-actin (Cell Signaling Technology) in cold room (6 °C). After incubation, membranes well washed with TBS/Tween solution and blocked with and horseradish peroxidase-conjugated secondary antibodies (Bio-Rad) for 1 h in cold room. Protein bands were visualized using ECL™ Prime Western Blotting Detection Reagents (Sigma Aldrich) Healthcare and Carestream Kodak autoradiography GBX fixer/replenisher (Sigma Aldrich) with Developer and Replenisher (Carestream) in the dark room. Results were obtained on Autoradiography Film (Santa Cruz Biotechnology). Densitometric analysis was performed by using a software program (ImageJ). […]

[2] = target: T1, hyaluronidase from bovine testes Type I-S (Bos taurus, UniProt Q2YDK3); test: Hyaluronidase inhibition assay (turbidimetric); assay type: biochemical; details: read-out: HYAL IC50 ± SD
T1 construct: purchased Sigma Aldrich; host or cells: bovine testes (tissue-derived preparation)
T1 sequence (Q2YDK3 36-553): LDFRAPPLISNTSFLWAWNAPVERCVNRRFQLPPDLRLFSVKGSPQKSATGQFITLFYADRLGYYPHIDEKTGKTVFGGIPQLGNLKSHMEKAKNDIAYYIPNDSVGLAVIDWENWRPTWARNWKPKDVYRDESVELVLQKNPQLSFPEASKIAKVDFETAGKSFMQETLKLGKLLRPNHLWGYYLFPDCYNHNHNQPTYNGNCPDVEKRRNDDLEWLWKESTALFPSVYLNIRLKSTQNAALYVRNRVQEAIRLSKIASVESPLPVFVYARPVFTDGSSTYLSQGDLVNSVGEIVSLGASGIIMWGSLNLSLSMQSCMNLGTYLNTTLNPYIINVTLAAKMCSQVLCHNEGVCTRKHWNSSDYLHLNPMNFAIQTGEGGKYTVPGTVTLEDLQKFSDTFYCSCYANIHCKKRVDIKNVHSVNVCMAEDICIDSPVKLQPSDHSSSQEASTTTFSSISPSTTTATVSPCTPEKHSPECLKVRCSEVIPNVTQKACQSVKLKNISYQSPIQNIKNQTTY

[3] = system: HT-29 cells; test: Reactive oxygen species assay (DCFH-DA), HT-29; assay type: cell-based, human; details: compound at IC50 24 h plus H2O2, H2O2 only 1.88-fold
Experimental: (§2) After incubation, compounds were added into the wells and further incubated for next 24 h. H2O2 (1 mM) was added at 22nd h of incubation with compounds. H2O2 was used as a positive control. 30 min before the analysis, DCFH-DA (20 µM) was added to the wells. After incubation, cells were harvested and washed in PBS. Then, cells were centrifuged at 1500 rpm for 10 min. Medium was removed and cells were suspended in PBS. Analysis was performed on BD Accuri C6 Flow Cytometry (Becton–Dickinson).

[4] = system: γ-H2AX; test: Western blot of γ-H2AX, HT-29; assay type: cell-based, human; details: HT-29, 24 h, IC50 and 1/2IC50
Experimental: as §1

[5] = system: HT-29 cells; test: Apoptosis assay by annexin-V/PI double staining, HT-29; assay type: cell-based, human; details: HT-29, 24 h, compound at IC50 (1i 5.90 µM); control 8.62%
Experimental: (§3) Compounds were added to the cells and further incubated for 24 h. After treatment, monolayer and supernatant cells were harvested, washed with PBS and centrifuged (monolayer at 1200 rpm for 10 min, supernatant at 3500 rpm for 10 min). Then, cells were re-suspended in binding buffer and stained with 2 µL of Annexin-V and […] of PI (ANNEXIN-V—FITC Apoptosis Detection Kit, Immunostep) in the dark for 10 min at room temperature. Cells were analysed by BD Accuri C6 Flow Cytometry (Becton–Dickinson). Etoposide (Calbiochem) was used as a reference drug. Experiments were done in triplicates.

[6] = system: 253J B-V and 253J B-V cisplatin-resistant cells
[7] = system: A549 cells; test: Apoptosis assay by annexin-V/PI double staining, A549; assay type: cell-based, human; details: A549, 24 h, compound at 2xIC50 (1i 29.74 µM); control 7.80%
Experimental: as §3

[8] = system: A549 cells; test: Colony forming assay, A549; assay type: cell-based, human
From the text: The plates were placed on ice.

[9] = system: A549 cells; test: Reactive oxygen species assay (DCFH-DA), A549; assay type: cell-based, human; details: compound at IC50 24 h plus H2O2, H2O2 only 1.86-fold
Experimental: as §2

[10] = system: A549 cells; test: Cell cycle analysis (PI, flow cytometry), A549; assay type: cell-based, human; details: A549, 24 h, compound at 1/2IC50 (1i 7.44 µM)
Experimental: Then, compounds were added into the wells and cells were further incubated for 24 h. After incubation, monolayer and supernatant cells were harvested and washed in PBS. Then, cells were centrifuged (monolayer—1200 rpm for 10 min, supernatant 3500 rpm for 10 min) and fixed in cold 70% ethanol. Pellets were kept at 4 °C for at least 2 h. Prior to analysis, cells were centrifuged and re-suspended in RNAsi (type 1-A; Sigma Aldrich)—PBS working solution (200 µg/mL). Samples were incubated at 37 °C for 10 min. At the end, 3 µL of 2 mg/mL propidium iodide (PI) (Sigma Aldrich) solution was added to each sample. Samples were kept in the dark prior to analysis. Analysis was performed on BD Accuri C6 Flow Cytometry (Becton–Dickinson). Etoposide (Calbiochem) was used as a reference drug. Experiments were done in triplicates.

Row | SMILES | Cleaved PARP-1 (89 kDa) level (in words) [1] | IC50 [2] | Increase in ROS level (DCF fluorescence) in comparison with non-treated control [3] | γ-H2AX protein level / DNA damage (in words) [4] | Total apoptotic cells [5] | Cytotoxic effect on cisplatin-resistant versus non-resistant 253J B-V cells (in words) [6] | Total apoptotic cells [7] | Number of colonies expressed as percent of control number ([8]; compound at 2xIC50) | Increase in ROS level (DCF fluorescence) in comparison with non-treated control [9] | Number of colonies expressed as percent of control number ([8]; compound at 1/2IC50) | Number of colonies expressed as percent of control number ([8]; compound at IC50) | Cells in G2/M phase [10] | Cells in S phase [10] | Cells in G0/G1 phase ([10]; control 51.74%)
1 | O=C(NCCCCNc1c2c(nc3ccccc13)CCCC2)c1ccccc1I [Compound 1c] | lower apoptosis at IC50 concentrations | 244 ± 7.95 µM | 1.83 fold | lowest effect on DNA damage | 12.96% | resistant cells were more sensitive | – | – | – | – | – | – | – | –
2 | O=C(NCCCNc1c2c(nc3ccccc13)CCCC2)c1ccccc1I [Compound 1b] | – | 233 ± 4.87 µM | – | – | – | resistant cells were more sensitive | 45.31% | 3.55% | 1.98 fold | – | – | – | – | –
3 | O=C(NCCCNc1c2c(nc3ccccc13)CCCC2)c1cccc(I)c1 [Compound 1e] | – | 231 ± 5.64 µM | – | – | – | – | 44.96% | – | 1.98 fold | – | – | – | – | –
4 | O=C(NCCCCNc1c2c(nc3ccccc13)CCCC2)c1ccc(I)cc1 [Compound 1i] | highest PARP-1 cleavage | 234 ± 8.98 µM | 1.85 fold | strongest H2AX phosphorylation | 11.80% | – | 71.98% | 0% | 1.98 fold | 39.47% | 4.70% | 11.31% | 12.76% | 75.93%
